Here are results for 16 compounds from patent US11771709B2, “ALK protein degradation agent and anti-tumor application thereof” (ShanghaiTech University, priority 2017, dated 2023).

Molecules are shown by their SMILES.

Broadly, the IC50 is the concentration that gives 50% inhibition. Low values mean inhibition by little substance, high ones a need for much substance. One may read the DC50 as the midpoint of the concentration-degradation curve.

The test system of one test is SR (NPM-ALK) cells. The experiment in a line: Growth inhibition IC50 in ALCL SR cells (CCK8/WST, 72 hours). The class given is cell-based. The conditions noted are these: SR cells, WST.
Test [1] has as its target T1, ALK protein in H3122 (EML4-ALK) cells (Homo sapiens, UniProt Q9UM73).
T1 construct: EML4 (Echinoderm microtubule-associated protein-like 4, Q9HC35) fusion partner, variant 1; host or cells: NCI-H3122 lung adenocarcinoma cells; the other entry of the earlier key: EML4 (Q9HC35, Echinoderm microtubule-associated protein-like 4)
The experiment in a line: Western blot of ALK protein level (degradation, DC50), ALK phosphorylation and downstream signaling in H3122 cells. The conditions noted are these: ALK protein degradation in H3122 cells. The class given is cell-based. (In general: A western blot detects proteins with antibodies after separation by electrophoresis.)
Procedure: Cancer cells were seeded in 1 ml RPMI1640 medium in 24-well plate at the density of 3×10^5 or 1.5×10^5 cells/ml. […] Then cells were washed twice with PBS and lyzed in RIPA lysis buffer with Halt Proteinase and Phosphotase inhibitor. Equal amount of proteins were loaded to run SDS-PAGE gels after denature. The gels were blotted to PVDF membrane. After incubating with first and secondary antibodies, the images were developed using SuperSignal West Pico Chemiluminescent Substrate.
DC50 (concentration required to degrade protein by half) were calculated based on the intensity from western blot, and data were analyzed via Prism GraphPad with non-linear regression.

Where [2] appears, read: 72 h, Brigatinib-based PROTAD molecules (Table 3).

T1 sequence (Q9UM73 with tags, fused parts or gaps): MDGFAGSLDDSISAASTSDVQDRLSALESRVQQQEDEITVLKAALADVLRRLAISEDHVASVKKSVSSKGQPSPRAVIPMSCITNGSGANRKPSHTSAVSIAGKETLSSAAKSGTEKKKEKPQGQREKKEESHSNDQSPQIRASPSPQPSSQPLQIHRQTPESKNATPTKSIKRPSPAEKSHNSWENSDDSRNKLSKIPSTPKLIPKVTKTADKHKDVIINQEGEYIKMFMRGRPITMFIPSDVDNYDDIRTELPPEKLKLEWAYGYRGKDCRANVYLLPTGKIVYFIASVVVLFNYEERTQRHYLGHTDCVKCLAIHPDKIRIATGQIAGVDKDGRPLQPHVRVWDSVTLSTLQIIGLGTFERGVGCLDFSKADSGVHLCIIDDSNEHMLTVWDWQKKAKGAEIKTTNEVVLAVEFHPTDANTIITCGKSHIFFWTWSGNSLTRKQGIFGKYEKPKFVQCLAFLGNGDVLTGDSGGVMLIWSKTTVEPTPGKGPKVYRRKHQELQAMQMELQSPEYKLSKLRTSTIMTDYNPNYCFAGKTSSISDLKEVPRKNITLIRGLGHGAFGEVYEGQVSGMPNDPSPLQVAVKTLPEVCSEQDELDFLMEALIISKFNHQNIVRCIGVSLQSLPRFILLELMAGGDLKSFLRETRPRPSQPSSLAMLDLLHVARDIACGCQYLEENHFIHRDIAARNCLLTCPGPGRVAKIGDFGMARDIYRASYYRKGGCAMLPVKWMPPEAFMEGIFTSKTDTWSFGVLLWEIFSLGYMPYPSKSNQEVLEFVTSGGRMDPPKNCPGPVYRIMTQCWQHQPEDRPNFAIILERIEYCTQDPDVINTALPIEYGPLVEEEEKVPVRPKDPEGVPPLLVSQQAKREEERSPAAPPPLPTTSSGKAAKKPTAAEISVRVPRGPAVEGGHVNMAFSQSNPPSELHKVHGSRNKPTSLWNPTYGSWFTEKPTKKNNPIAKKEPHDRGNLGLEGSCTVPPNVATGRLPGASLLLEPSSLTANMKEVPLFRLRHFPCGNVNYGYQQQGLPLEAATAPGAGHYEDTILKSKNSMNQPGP
Procedure for SR (NPM-ALK) cells: SR (NPM-ALK) and NCI-H2228 (EML4-ALK, V3) cells were purchased from ATCC. […] All Cells were cultured in RPMI1640 medium with 10% FBS and Penicillin-Streptomycin in 37° C. incubator with 5% CO2.
Cells were seeded at specific density in 96 well plates one day before treatment. […] Viable cells were measured via CCK8 reagent and IC50s were calculated via Prism Graphad. Experiments were repeated at least three times.

With `CCc1cc2c(cc1N1CCN(C(=O)CCCc3cn(CCCC(=O)N[C@H](C(=O)N4C[C@H](O)C[C@H]4C(=O)NCc4ccc(-c5scnc5C)cc4)C(C)(C)C)nn3)CC1)C(C)(C)c1[nH]c3cc(C#N)ccc3c1C2=O` [SIAIS164155, (2S,4R)-1-((S)-2-(4-(4-(4-(4-(3-cyano-9-ethyl-6,6-dimethyl-11-oxo-6,11-dihydro-5H-benzo[b]carbazol-8-yl)piperazin-1-yl)-4-oxobutyl)-1H-1,2,3-triazol-1-yl)butanamido)-3,3-dimethylbutanoyl)-4-hydroxy-N-(4-(4-methylthiazol-5-yl)benzyl)pyrrolidine-2-carboxamide], the 50% inhibitory concentration (IC50) in the test on SR (NPM-ALK) cells (Alectinib based ALK PROTAD compounds (Table 4)) was found to be 104 nM. The same compound displayed a half-maximal degradation concentration (DC50) in test [1] of 10 to 50 nM.
As to `COc1cc(N2CCC(NC(=O)CCC(=O)NCCNc3cccc4c3C(=O)N(C3CCC(=O)NC3=O)C4=O)CC2)ccc1Nc1ncc(Cl)c(Nc2ccccc2P(C)(C)=O)n1` (centres unmarked) [SIAIS164157, N1-(1-(4-((5-chloro-4-((2-(dimethylphosphoryl)phenyl)amino)pyrimidin-2-yl)amino)-3-methoxyphenyl)piperidin-4-yl)-N4-(2-((2-(2,6-dioxopiperidin-3-yl)-1,3-dioxoisoindolin-4-yl)amino)ethyl)succinamide], the IC50 in the test with SR (NPM-ALK) cells (setting [2]) was found to be 15.7 ± 15 nM. In test [1], this compound returned a DC50 of 1 to 50 nM.
The like results for `COc1cc(N2CCN(C(=O)CCOCCOCCC(=O)N[C@H](C(=O)N3C[C@H](O)C[C@H]3C(=O)NCc3ccc(-c4scnc4C)cc3)C(C)(C)C)CC2)ccc1Nc1ncc(Cl)c(Nc2ccccc2P(C)(C)=O)n1` [SIAIS197079, (2S,4R)-1-((S)-2-(3-(2-(3-(4-(4-((5-chloro-4-((2-(dimethylphosphoryl)phenyl)amino)pyrimidin-2-yl)amino)-3-methoxyphenyl)piperazin-1-yl)-3-oxopropoxy)ethoxy)propanamido)-3,3-dimethylbutanoyl)-4-hydroxy-N-(4-(4-methylthiazol-5-yl)benzyl)pyrrolidine-2-carboxamide] were, in that order, 15.9 ± 8.5 nM and 50 to 500 nM.
The like results for `COc1cc(N2CCN(C(=O)CCNc3cccc4c3C(=O)N(C3CCC(=O)NC3=O)C4=O)CC2)ccc1Nc1ncc(Cl)c(Nc2ccccc2P(C)(C)=O)n1` (centres unmarked) [SIAIS1197057, 4-((3-(4-(4-((5-chloro-4-((2-(dimethylphosphoryl)phenyl)amino)pyrimidin-2-yl)amino)-3-methoxyphenyl)piperazin-1-yl)-3-oxopropyl)amino)-2-(2,6-dioxopiperidin-3-yl)isoindoline-1,3-dione] were, in that order, 17.7 ± 9.6 nM and 50 to 500 nM.
Compound `COc1cc(N2CCN(C(=O)CCCNc3cccc4c3C(=O)N(C3CCC(=O)NC3=O)C4=O)CC2)ccc1Nc1ncc(Cl)c(Nc2ccccc2P(C)(C)=O)n1` (centres unmarked) [SIAIS1197059, 4-((4-(4-(4-((5-chloro-4-((2-(dimethylphosphoryl)phenyl)amino)pyrimidin-2-yl)amino)-3-methoxyphenyl)piperazin-1-yl)-4-oxobutyl)amino)-2-(2,6-dioxopiperidin-3-yl)isoindoline-1,3-dione] gave a half-maximal inhibitory concentration (IC50) in the test with SR (NPM-ALK) cells (setting [2]) of 10.7 ± 6.2 nM. The DC50 in test [1] lay in the range of 1 to 50 nM.
The like results for `COc1cc(N2CCN(C(=O)CCCCNc3cccc4c3C(=O)N(C3CCC(=O)NC3=O)C4=O)CC2)ccc1Nc1ncc(Cl)c(Nc2ccccc2P(C)(C)=O)n1` (centres unmarked) [SIAIS1197061, 4-((5-(4-(4-((5-chloro-4-((2-(dimethylphosphoryl)phenyl)amino)pyrimidin-2-yl)amino)-3-methoxyphenyl)piperazin-1-yl)-5-oxopentyl)amino)-2-(2,6-dioxopiperidin-3-yl)isoindoline-1,3-dione] were, in that order, 8 ± 4.4 nM and 50 to 500 nM.
The like results for `COc1cc(N2CCN(C(=O)CCCCCNc3cccc4c3C(=O)N(C3CCC(=O)NC3=O)C4=O)CC2)ccc1Nc1ncc(Cl)c(Nc2ccccc2P(C)(C)=O)n1` (centres unmarked) [SIAIS1197063, 4-((6-(4-(4-((5-chloro-4-((2-(dimethylphosphoryl)phenyl)amino)pyrimidin-2-yl)amino)-3-methoxyphenyl)piperazin-1-yl)-6-oxohexyl)amino)-2-(2,6-dioxopiperidin-3-yl)isoindoline-1,3-dione] were, in that order, 14.1 ± 7.3 nM and 50 to 500 nM.
The like results for `COc1cc(N2CCN(C(=O)CCOCCNc3cccc4c3C(=O)N(C3CCC(=O)NC3=O)C4=O)CC2)ccc1Nc1ncc(Cl)c(Nc2ccccc2P(C)(C)=O)n1` (centres unmarked) [SIAIS1197065, 4-((2-(3-(4-(4-((5-chloro-4-((2-(dimethylphosphoryl)phenyl)amino)pyrimidin-2-yl)amino)-3-methoxyphenyl)piperazin-1-yl)-3-oxopropoxy)ethyl)amino)-2-(2,6-dioxopiperidin-3-yl)isoindoline-1,3-dione] were, in that order, 20.7 ± 14.9 nM and 100 to 500 nM.
`COc1cc(N2CCN(C(=O)CCOCCOCCNc3cccc4c3C(=O)N(C3CCC(=O)NC3=O)C4=O)CC2)ccc1Nc1ncc(Cl)c(Nc2ccccc2P(C)(C)=O)n1` (centres unmarked) [SIAIS1197067, 4-((2-(2-(3-(4-(4-((5-chloro-4-((2-(dimethylphosphoryl)phenyl)amino)pyrimidin-2-yl)amino)-3-methoxyphenyl)piperazin-1-yl)-3-oxopropoxy)ethoxy)ethyl)amino)-2-(2,6-dioxopiperidin-3-yl)isoindoline-1,3-dione] displayed an IC50 in the test with SR (NPM-ALK) cells (setting [2]) of 16.1 ± 6.1 nM. This compound came in with a 50% degradation concentration (DC50) in test [1] of 100 to 500 nM.
Take `COc1cc(N2CCN(C(=O)CCOCCOCCOCCNc3cccc4c3C(=O)N(C3CCC(=O)NC3=O)C4=O)CC2)ccc1Nc1ncc(C)c(Nc2ccccc2P(C)(C)=O)n1` (centres unmarked) [SIAIS1197069, 4-((2-(2-(2-(3-(4-(4-((4-((2-(dimethylphosphoryl)phenyl)amino)-5-methylpyrimidin-2-yl)amino)-3-methoxyphenyl)piperazin-1-yl)-3-oxopropoxy)ethoxy)ethoxy)ethyl)amino)-2-(2,6-dioxopiperidin-3-yl)isoindoline-1,3-dione]: it took 22.3 ± 18.2 nM to reach half-maximal inhibition with SR (NPM-ALK) cells (setting [2]) (IC50). Further, the DC50 in test [1] lay within 100 to 500 nM.
`COc1cc(N2CCN(C(=O)CCOCCOCCOCCOCCOCCNc3cccc4c3C(=O)N(C3CCC(=O)NC3=O)C4=O)CC2)ccc1Nc1ncc(Cl)c(Nc2ccccc2P(C)(C)=O)n1` (centres unmarked) [SIAIS1197073, 4-((18-(4-(4-((5-chloro-4-((2-(dimethylphosphoryl)phenyl)amino)pyrimidin-2-yl)amino)-3-methoxyphenyl)piperazin-1-yl)-18-oxo-3,6,9,12,15-pentaoxaoctadecyl)amino)-2-(2,6-dioxopiperidin-3-yl)isoindoline-1,3-dione] showed an IC50 in the test with SR (NPM-ALK) cells (setting [2]) of 34.2 ± 23.9 nM. The same compound showed a DC50 in test [1] of 100 to 500 nM.
The like results for `COc1cc(N2CCN(C(=O)CCOCCOCCOCCC(=O)N[C@H](C(=O)N3C[C@H](O)C[C@H]3C(=O)NCc3ccc(-c4scnc4C)cc3)C(C)(C)C)CC2)ccc1Nc1ncc(Cl)c(Nc2ccccc2P(C)(C)=O)n1` [SIAIS1197081, (2S,4R)-1-((S)-2-(tert-butyl)-16-(4-(4-((5-chloro-4-((2-(dimethylphosphoryl)phenyl)amino)pyrimidin-2-yl)amino)-3-methoxyphenyl)piperazin-1-yl)-4,16-dioxo-7,10,13-trioxa-3-azahexadecanoyl)-4-hydroxy-N-(4-(4-methylthiazol-5-yl)benzyl)pyrrolidine-2-carboxamide] were, in that order, 32.5 ± 19.8 nM and 50 to 500 nM.
Turning to `COc1cc(N2CCN(C(=O)CCOCCOCCOCCOCCC(=O)N[C@H](C(=O)N3C[C@H](O)C[C@H]3C(=O)NCc3ccc(-c4scnc4C)cc3)C(C)(C)C)CC2)ccc1Nc1ncc(Cl)c(Nc2ccccc2P(C)(C)=O)n1` [SIAIS1197083, (2S,4R)-1-((S)-2-(tert-butyl)-19-(4-(4-((5-chloro-4-((2-(dimethylphosphoryl)phenyl)amino)pyrimidin-2-yl)amino)-3-methoxyphenyl)piperazin-1-yl)-4,19-dioxo-7,10,13,16-tetraoxa-3-azanonadecanoyl)-4-hydroxy-N-(4-(4-methylthiazol-5-yl)benzyl)pyrrolidine-2-carboxamide], in the test on SR (NPM-ALK) cells (setting [2]), the IC50 was 49.9 ± 30.8 nM. The compound further returned a DC50 in test [1] of 50 to 500 nM.
The like results for `COc1cc(N2CCN(C(=O)CCOCCOCCOCCOCCOCCC(=O)N[C@H](C(=O)N3C[C@H](O)C[C@H]3C(=O)NCc3ccc(-c4scnc4C)cc3)C(C)(C)C)CC2)ccc1Nc1ncc(Cl)c(Nc2ccccc2P(C)(C)=O)n1` [SIAIS1197085, (2S,4R)-1-((S)-2-(tert-butyl)-22-(4-(4-((5-chloro-4-((2-(dimethylphosphoryl)phenyl)amino)pyrimidin-2-yl)amino)-3-methoxyphenyl)piperazin-1-yl)-4,22-dioxo-7,10,13,16,19-pentaoxa-3-azadocosanoyl)-4-hydroxy-N-(4-(4-methylthiazol-5-yl)benzyl)pyrrolidine-2-carboxamide] were, in that order, 62.5 ± 39.2 nM and 20 to 100 nM.
As for `COc1cc(N2CCN(C(=O)COCCOCC(=O)N[C@H](C(=O)N3C[C@H](O)C[C@H]3C(=O)NCc3ccc(-c4scnc4C)cc3)C(C)(C)C)CC2)ccc1Nc1ncc(Cl)c(Nc2ccccc2P(C)(C)=O)n1` [SIAIS1197087, (2S,4R)-1-((S)-2-(2-(2-(2-(4-(4-((5-chloro-4-((2-(dimethylphosphoryl)phenyl)amino)pyrimidin-2-yl)amino)-3-methoxyphenyl)piperazin-1-yl)-2-oxoethoxy)ethoxy)acetamido)-3,3-dimethylbutanoyl)-4-hydroxy-N-(4-(4-methylthiazol-5-yl)benzyl)pyrrolidine-2-carboxamide], the IC50 in the test with SR (NPM-ALK) cells (setting [2]) came to 10.6 ± 2.4 nM. This compound also displayed a DC50 in test [1] of 50 to 500 nM.
In the test with SR (NPM-ALK) cells (setting [2]), `COc1cc(N2CCN(C(=O)CCC(=O)N[C@H](C(=O)N3C[C@H](O)C[C@H]3C(=O)NCc3ccc(-c4scnc4C)cc3)C(C)(C)C)CC2)ccc1Nc1ncc(Cl)c(Nc2ccccc2P(C)(C)=O)n1` [SIAIS1197145, (2S,4R)-1-((S)-2-(4-(4-(4-((5-chloro-4-((2-(dimethylphosphoryl)phenyl)amino)pyrimidin-2-yl)amino)-3-methoxyphenyl)piperazin-1-yl)-4-oxobutanamido)-3,3-dimethylbutanoyl)-4-hydroxy-N-(4-(4-methylthiazol-5-yl)benzyl)pyrrolidine-2-carboxamide] displayed an IC50 of 8.5 ± 5.6 nM. The compound further displayed a half-maximal degradation concentration (DC50) in test [1] of 1 to 50 nM.
